Consider one compound from article PMC4527730, “A Pan-GTPase Inhibitor as a Molecular Probe” (PLoS ONE, 2015).

Where “and” joins values, the source holds several entries; their conditions need not be identical. Equal entries are not always repeated. Where two headings read alike, the source gives them in different places.

For one series, the system named is Rab7, Cdc42 and Ras. Briefly: Association and dissociation time course of BODIPY-FL GTP (real-time flow cytometry). Format: binding. The method, then:
GTPases were bound to glutathione-coated microsphere beads overnight and unbound GTPases were removed by washing. The association and dissociation of BODIPY^- FL GTP was analyzed with the Accuri C6 flow cytometer in real-time. The initial 30 s set the baseline fluorescence. […] When the fluorescence plateau was reached, GTP at 50 μM was added to induce BODIPY^- FL GTP dissociation. […] All the concentrations given are the final concentrations.
In general terms: A flow cytometer gives signals particle by particle.

The test system of series [1] is phospho-Erk 1/2 in H358 cells. In words: Western blotting of Erk1/2 phosphorylation downstream of Ras signaling. Format: cell-based. To be noted: 10 μM, 1 h; complete medium or FBS stimulated after starvation. The method, then: H358 lung cancer cells were seeded at 10^6 cells/well in 6–well plates. […] Then cells were stimulated with 10% FBS for 5 min and lysed in 150 μl RIPA buffer. Cell lysates were processed for SDS-PAGE, transferred to PVDF membranes and probed with a monoclonal antibody directed against phospho-Erk 1/2 (from Cell Signaling) and a monoclonal antibody directed against Erk 1/2 (from Cell Signaling) followed by an HRP labeled ECL anti-mouse IgG (from GE Healthcare).
In general terms: A western blot detects proteins with antibodies after separation by electrophoresis.

The next series concerns SCC-12F cells. Briefly: Cytotoxicity (CellTiter-Glo). To be noted: up to 100 µM; 24 h and 3 h. Format: cell-based. The protocol:
(§1) S3 Fig. Cytotoxicity of 1 and analogues. […]
(§2) µM over the experimental time frame. Compounds tested in the U937ΔST cells for 24 h (A) and (B), and for 1 h (C). Compounds tested in SCC-12F cells for 24 h (D) and (E), and for 3 h (F-I). Data are reported as ratios of luminescence to that of the DMSO treated control.
(§3) (1 picture or pasted object on this page, not shown here)
(§4) FITC-LDV dissociation assay
(§5) The dissociation kinetics of FITC-LDV was measured by flow cytometry following the addition of 100-fold excess of non-fluorescent LDV. (The kinetic constants obtained are the same within experimental error whether adding 100-fold or 200-fold excess non-fluorescent LDV). The fluorescence decrease was recorded (see B in S2 Fig.). For the resting state, when a fluorescence plateau was reached after the addition of LDV-FITC, LDV was added to the cell suspension. For the high affinity state, when the fluorescence reached equilibrium after the sequential addition of LDV-FITC and N-formyl peptide, LDV was added. To study the effect of a compound, LDV was added at the time point when the fluorescence approached a […]. The fluorescence decrease curve was fitted to Equation 2 to obtain the dissociation rate constant koff. […] Therefore the binding affinity can also be estimated by comparing the measured koff. […]
In general terms: ATP-based viability assays read luminescence as a measure of living cells.

Another series has as its system U937 FPRΔST cells. In words: Cytotoxicity (CellTiter-Glo). The class given is cell-based. To be noted: up to 100 µM; 24 h and 1 h. The protocol:
as §1, §2, §3, §4, §5

The nature of series [2]: Solubility in PBS and assay media. The class given is physicochemical. The protocol:
page 7: conclusion, the available data support the idea that compound CID1067700 has non-classical competitive character. […] Solubility was measured in phosphate buffered saline (PBS) at room temperature (23 °C). PBS by definition is 137 mM NaCl, 2.7 mM KCl, 10 mM sodium phosphate dibasic, 2 mM potassium phosphate [monobasic and a pH of 7.4. Detection was based on UV absorbance. […] Solubility was also assessed in the each of the four media used in the individual assays. […] Table 1S. […] Stability, depicted as closed circles in the graph, was assessed at room temperature (23 °C) in PBS (no antioxidants or other protectants and DMSO concentration below 0.1%). Stability data is depicted in Fig. S8 showing the loss of compound with time over a 48 h period with a minimum of 6 time points and providing the percent remaining compound at end of the 48 h period. Under these conditions, 77% of 1 remains after 48 hours. The degradation has not been further characterized.

A further series deals with Ras. Briefly: GTPase and effector interaction assay (Raf1-RBD beads), HeLa cell lysates. To be noted: HeLa cells, 10 μM, 2 h, EGF 10 ng/mL 2 min.
A further series has as its target Cdc42 (Homo sapiens, UniProt P60953). In words: Multiplex bead-based flow cytometry dose-response of fluorescent guanine nucleotide binding.
In the next series the target is RhoA (Homo sapiens, UniProt P61586). The series is described as above. To be noted: EC50 RhoA.
Chain of RhoA (P61586 whole entry): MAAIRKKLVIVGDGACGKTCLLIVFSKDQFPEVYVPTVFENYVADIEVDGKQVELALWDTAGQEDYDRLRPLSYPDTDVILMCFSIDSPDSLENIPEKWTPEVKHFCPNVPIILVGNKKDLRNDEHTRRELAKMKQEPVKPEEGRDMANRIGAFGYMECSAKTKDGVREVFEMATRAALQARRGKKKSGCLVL

Chain of Cdc42 (P60953 whole entry): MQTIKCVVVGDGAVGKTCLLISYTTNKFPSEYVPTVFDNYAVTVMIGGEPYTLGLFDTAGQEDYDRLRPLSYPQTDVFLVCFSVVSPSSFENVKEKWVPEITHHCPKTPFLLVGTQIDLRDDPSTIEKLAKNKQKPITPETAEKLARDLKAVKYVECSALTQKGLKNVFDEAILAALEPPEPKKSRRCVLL
Description for RhoA: Briefly, individual GST-GTPases were separately attached to glutathione microsphere beads that were labeled with varying intensity of red fluorescent dye, and subsequently combined. The buffer contains 30 mM HEPES (pH 7.2), 150 mM KCl, 20 mM NaCl, 0.1% BSA, 1 mM DTT, 1 mM EDTA and 0.1% NP-40. For Rho A and Rac1, 1 mM EDTA was replaced with 1 mM MgCl2 to stabilize the protein. […] To study whether the compounds are slow binders, BODIPY^- FL GTP was added either immediately or 2 h after compound addition. […] The curves were fitted to the sigmoidal dose-response equation using GraphPad Prism. Percent response was calculated as the ratio of (sample MCF–negative control MCF) / (positive control MCF–negative control MCF).

What is called solubility is the dissolved amount per volume that the medium holds. The term EC50 denotes the midpoint of the concentration-response curve. Turning to `CC1(C)Cc2c(sc(NC(=S)NC(=O)c3ccccc3)c2C(=O)O)CO1` [Compound 1], in the series with Rab7, Cdc42 and Ras (50 μM overnight, extensive washing), the “covalent bond formation with GTPases / reversibility” value is “did not form a covalent bond”. In addition, the “dissociation of pre-bound BODIPY-FL GTP” value with Rab7, Cdc42 and Ras (compound 50 μM added at plateau) is “able to induce dissociation”. The “binding of BODIPY-FL GTP in the presence of compound” value in the series with Rab7, Cdc42 and Ras (compound 50 μM, BODIPY-FL GTP 100 nM) is recorded as “decreased”. Also, in series [1], the “phosphorylation level of Erk 1/2” value is “decreased”. The toxicity entry in the series with SCC-12F cells and in the series with U937 FPRΔST cells was “did not show toxicity” throughout. Besides, the solubility in series [2] (Dose Response-buffer (HEPES buffer), 23 °C, aqueous with cosolvent or surfactant or cyclodextrin, 30mM HEPES, pH 7.5, 100mM KCl, 20mM NaCl, 0.01% (v/v) NP-40, read-out: Solubility, Dose Response-buffer) is > 68.1 µg/mL and > 174 µM; in series [2] (EGFR degradation assay medium, DMEM/F-12, read-out: Solubility, EGFR degradation assay medium) it was > 116 µg/mL and > 297 µM; in series [2] (LDV-FITC assay buffer, RPMI 1640 + 10% HI-FBS, read-out: Solubility, LDV-FITC assay buffer), > 116 µg/mL and > 297 µM; in series [2] (phosphate buffered saline (PBS), PBS pH 7.4, 23 °C, read-out: PBS solubility), > 116 µg/mL and > 297 µM. The “level of active Ras after EGF stimulation” value with Ras was “dramatically blunted”. Besides, the EC50 was 1090 ± 1620 nM at Cdc42 (EC50 Cdc42, BODIPY-FL GTP binding, 2 h at 4°C); 420 nM on Cdc42 (EC50 Cdc42, concentration dependence on BODIPY-FL GDP); 2060 ± 38 nM at Cdc42 (EC50 Cdc42_1, with 2 h incubation before BODIPY-FL GTP, Cdc42 purified in house); 2230 ± 1470 nM at Cdc42 (EC50 Cdc42_1, without incubation before BODIPY-FL GTP, Cdc42 purified in house); 3710 ± 39 nM at Cdc42 (EC50 Cdc42_2, with 2 h incubation before BODIPY-FL GTP, Cdc42 from Cytoskeleton); 4460 ± 2630 nM on Cdc42 (EC50 Cdc42_2, without incubation before BODIPY-FL GTP, Cdc42 from Cytoskeleton). For the same compound, the EC50 is 62 ± 49 nM at RhoA (BODIPY-FL GTP binding, 2 h at 4°C, 1 mM MgCl2) and 100 nM on RhoA (concentration dependence on BODIPY-FL GDP).
